Measured values as given in patent US7479500B2, “Antidepressant piperidine derivatives of heterocyclefused benzodioxans” (Wyeth, priority 2002, dated 2009).
Structures can show the parent of a compound that is named as a salt. Where two headings read alike, the source gives them in different places.

Tests used:
human 5-HT1A receptors = biological target: T1, human 5-HT1A receptors (Homo sapiens, UniProt P08908); experiment: [3H] 8-OHDPAT displacement from 5-HT1A receptor in transfected CHO cells; format: binding
T1 construct: expressed in transfected cells; host or cells: CHO cells
T1 sequence (P08908 1-422): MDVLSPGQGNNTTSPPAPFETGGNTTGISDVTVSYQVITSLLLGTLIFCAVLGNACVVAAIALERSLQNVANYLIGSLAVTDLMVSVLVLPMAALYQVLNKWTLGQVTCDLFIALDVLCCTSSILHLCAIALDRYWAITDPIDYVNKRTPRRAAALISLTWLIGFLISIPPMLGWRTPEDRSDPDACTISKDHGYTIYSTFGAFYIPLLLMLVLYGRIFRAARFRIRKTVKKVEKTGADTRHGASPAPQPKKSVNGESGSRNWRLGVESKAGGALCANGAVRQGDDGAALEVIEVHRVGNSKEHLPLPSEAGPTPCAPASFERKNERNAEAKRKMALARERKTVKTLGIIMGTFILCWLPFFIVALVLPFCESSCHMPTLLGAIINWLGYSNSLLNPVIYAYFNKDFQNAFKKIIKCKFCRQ
From the text: High affinity for the serotonin 5-HT1A receptor was established by testing the claimed compound's ability to displace [^3H] 8-OHDPAT (dipropylaminotetralin) from the 5-HT1A serotonin receptor following a modification of the procedure of Hall et al., J. Neurochem. 44, 1685 (1985) which utilizes CHO cells stably transfected with human 5-HT1A receptors.

serotonin transporter = biological target: T2, serotonin transporter (Rattus norvegicus, UniProt P31652); experiment: 3H-paroxetine displacement from rat frontal cortical membranes (serotonin transporter affinity); format: binding
T2 construct: displace ^3H-paroxetine from male rat frontal cortical membranes; from tissue; host or cells: male rat frontal cortex membranes

[1] = biological target: T3, cloned human 5-HT1A receptors (Homo sapiens, UniProt P08908); experiment: 35S-GTPγS binding assay for antagonist activity at 5-HT1A receptors; format: biochemical; details: membranes with cloned human 5-HT1A receptors, reversal of agonist 8-OHDPAT; for Emax: read-out: 5-HT1A Function (Imax), maximum inhibitory effect; for IC50: read-out: 5-HT1A Function IC50
T3 construct: expressed in transfected cells
T3 sequence (P08908 1-422): T1 sequence (P08908 1-422)
Experimental: Antagonist activity at 5-HT1A receptors was established by using a ^35S-GTPγS binding assay similar to that used by Lazareno and Birdsall (Br. J. Pharmacol. 109: 1120, 1993), in which the test compound's ability to affect the binding of ^35S-GTPγS to membranes containing cloned human 5-HT1A receptors was determined. Agonists produce an increase in binding whereas antagonists produce no increase but rather reverse the effects of the standard agonist 8-OHDPAT. The test compound's maximum inhibitory effect is represented as the Imax, while its potency is defined by the IC50.

[2] = displacement of [3H] 8-OHDPAT, CHO cells stably transfected with human 5-HT1A receptors, read-out: 5-HT1A Receptor Affinity KI
[3] = displacement of 3H-paroxetine, male rat frontal cortical membranes, read-out: 5-HT Transporter Affinity KI

T2 sequence (P31652 whole entry): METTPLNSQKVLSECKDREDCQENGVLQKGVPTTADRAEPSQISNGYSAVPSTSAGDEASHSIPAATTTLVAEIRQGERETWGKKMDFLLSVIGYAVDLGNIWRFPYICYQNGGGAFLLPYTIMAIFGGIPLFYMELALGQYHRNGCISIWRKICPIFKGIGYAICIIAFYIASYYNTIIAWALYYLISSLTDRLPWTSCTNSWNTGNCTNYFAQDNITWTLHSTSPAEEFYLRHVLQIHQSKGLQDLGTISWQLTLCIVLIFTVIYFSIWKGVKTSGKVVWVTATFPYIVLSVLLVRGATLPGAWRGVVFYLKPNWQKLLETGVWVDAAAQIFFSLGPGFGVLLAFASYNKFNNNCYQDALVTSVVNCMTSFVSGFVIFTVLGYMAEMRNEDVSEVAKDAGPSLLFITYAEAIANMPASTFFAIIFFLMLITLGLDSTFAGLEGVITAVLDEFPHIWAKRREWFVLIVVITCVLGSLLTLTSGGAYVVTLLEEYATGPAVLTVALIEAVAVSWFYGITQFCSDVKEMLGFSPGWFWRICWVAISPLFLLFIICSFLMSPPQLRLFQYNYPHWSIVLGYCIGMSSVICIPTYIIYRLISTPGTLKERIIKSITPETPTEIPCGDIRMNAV

Row | Ki (serotonin transporter; [3]) [µM] | SMILES | Ki (human 5-HT1A receptors) [µM] | Ki (serotonin transporter) [µM] | Emax [1] [%] | IC50 [1] [µM] | melting point [°C] | Ki (human 5-HT1A receptors; [2]) [µM]
1 | – | Cc1ccc2c3c(ccc2n1)OCC(CN1CC=C(c2csc4ccccc24)CC1)O3 (stereo not shown) [Example 1, 2-(4-Benzo[b]thiophen-3-yl-3,6-dihydro-2H-pyridin-1-ylmethyl)-8-methyl-2,3-dihydro-[1,4]dioxino[2,3-f]quinoline] | 0.00489 | 0.00925 | 100 | 0.499 | – | –
2 | – | Cc1ccc2c3c(ccc2n1)OCC(CN1CC=C(c2csc4ccccc24)CC1)O3 (stereo not shown) (as salt: oxalate) [Example 1, 2-(4-Benzo[b]thiophen-3-yl-3,6-dihydro-2H-pyridin-1-ylmethyl)-8-methyl-2,3-dihydro-[1,4]dioxino[2,3-f]quinoline] | – | – | – | – | 129 to 133 | –
3 | 0.017 | Cc1ccc2c3c(ccc2n1)OCC(CN1CCC(c2nc4ccccc4o2)CC1)O3 (stereo not shown) [Example 14, 2-(4-Benzoxazol-2-yl-piperidin-1-ylmethyl)-8-methyl-2,3-dihydro-[1,4]dioxino[2,3-f]quinoline] | – | – | 100 | 0.167 | 128 to 130 | 0.0198
4 | – | Cc1nc2ccc3c(c2o1)OC(CN1CC=C(c2csc4ccccc24)CC1)CO3 (stereo not shown) [Example 9, 8-(4-Benzo[b]thiophen-3-yl-3,6-dihydro-2H-pyridin-1-ylmethyl)-2-methyl-7,8-dihydro-[1,4]dioxino[2,3-g][1,3]benzoxazole] | 0.0202 | 0.013 | 50 | 1.98 | – | –
5 | – | Cc1ccc2c3c(ccc2n1)OCC(CN1CC=C(c2csc4ccc(Cl)cc24)CC1)O3 (stereo not shown) [Example 13, 2-[4-(5-Chloro-benzo[b]thiophen-3-yl)-3,6-dihydro-2H-pyridin-1-ylmethyl]-8-methyl-2,3-dihydro-[1,4]dioxino[2,3-f]quinoline] | – | 0.094 | 100 | 2.52 | – | 0.135
6 | – | Fc1ccc2scc(C3=CCN(C[C@H]4COc5ccc6[nH]ccc6c5O4)CC3)c2c1 [Example 8, 2-[4-(5-Fluoro-benzo[b]thiophen-3-yl)-3,6-dihydro-2H-pyridin-1-ylmethyl]-2,3-m-dihydro-7H-[1,4]dioxino[2,3-e]indole] | 0.00345 | 0.033 | 100 | 0.147 | – | –
7 | 0.109 | Cc1ccc2c3c(ccc2n1)OCC(CN1CCC(c2cc4ccccc4o2)CC1)O3 (stereo not shown) [Example 12, 2-(4-Benzofuran-2-yl-piperidin-1-ylmethyl)-8-methyl-2,3-dihydro-[1,4]dioxino[2,3-f]quinoline] | – | – | 100 | 0.59 | 103 to 104 | 0.00867
8 | – | Fc1ccc2scc(C3=CCN(CC4COc5ccc6ncccc6c5O4)CC3)c2c1 (stereo not shown) [Example 5, 2-[4-(5-Fluoro-benzo[b]thiophen-3-yl)-3,6-dihydro-2H-pyridin-1-ylmethyl]-2,3-dihydro-[1,4]dioxino[2,3-f]quinoline] | 0.0234 | 0.035 | 30 | 1 | – | –
9 | – | Cc1ccc2c3c(ccc2n1)OCC(CN1CC=C(c2cccc4ccsc24)CC1)O3 (stereo not shown) (as salt: oxalate) [Example 10, 2-(4-Benzo[b]thiophen-7-yl-3,6-dihydro-2H-pyridin-1-ylmethyl)-8-methyl-2,3-dihydro-[1,4]dioxino[2,3-f]quinoline] | – | – | – | – | 183 to 185 | –
10 | – | C1=C(c2csc3ccccc23)CCN(CC2COc3ccc4[nH]ccc4c3O2)C1 (stereo not shown) [Example 7, 2-(4-Benzo[b]thiophen-3-yl-3,6-dihydro-2H-pyridin-1-ylmethyl)-2,3-dihydro-7H-[1,4]dioxino[2,3-e]indole] | 0.00474 | 0.00248 | 100 | 0.0258 | – | –
11 | – | Fc1ccc2scc(C3=CCN(CC4COc5ccc6ncccc6c5O4)CC3)c2c1 (stereo not shown) (as salt: oxalate) [Example 5, 2-[4-(5-Fluoro-benzo[b]thiophen-3-yl)-3,6-dihydro-2H-pyridin-1-ylmethyl]-2,3-dihydro-[1,4]dioxino[2,3-f]quinoline] | – | – | – | – | 183 to 185 | –
12 | – | Cc1ccc2c3c(ccc2n1)OCC(CN1CC=C(c2csc4ccc(F)cc24)CC1)O3 (stereo not shown) (as salt: oxalate) [Example 3, 2-[4-(5-Fluoro-benzo[b]thiophen-3-yl)-3,6-dihydro-2H-pyridin-1-ylmethyl]-8-methyl-2,3-dihydro-[1,4]dioxino[2,3-f]quinoline] | – | – | – | – | 197 to 201 | –
13 | – | Cc1ccc2c3c(ccc2n1)OCC(CN1CC=C(c2cccc4ccsc24)CC1)O3 (stereo not shown) [Example 10, 2-(4-Benzo[b]thiophen-7-yl-3,6-dihydro-2H-pyridin-1-ylmethyl)-8-methyl-2,3-dihydro-[1,4]dioxino[2,3-f]quinoline] | 0.0349 | 0.01 | 40.5 | 0.392 | – | –
14 | – | C1=C(c2csc3ccccc23)CCN(CC2COc3ccc4ncccc4c3O2)C1 (stereo not shown) (as salt: oxalate) [Example 6, 2-(4-Benzo[b]thiophen-3-yl-3,6-dihydro-2H-pyridin-1-ylmethyl)-2,3-dihydro-[1,4]dioxino[2,3-f]quinoline] | – | – | – | – | 178 to 180 | –
15 | – | COc1cccc2c(C3=CCN(C[C@H]4COc5ccc6nc(C)ccc6c5O4)CC3)coc12 [Example 4, 2-[4-(7-Methoxy-benzofuran-3-yl)-3,6-dihydro-2H-pyridin-1-ylmethyl]-8-methyl-2,3-dihydro-[1,4]dioxino[2,3-f]guinoline] | 0.00266 | 0.07 | 91 | 0.167 | – | –
16 | – | Cc1ccc2c3c(ccc2n1)OCC(CN1CC=C(c2csc4ccc(F)cc24)CC1)O3 (stereo not shown) [Example 3, 2-[4-(5-Fluoro-benzo[b]thiophen-3-yl)-3,6-dihydro-2H-pyridin-1-ylmethyl]-8-methyl-2,3-dihydro-[1,4]dioxino[2,3-f]quinoline] | 0.0159 | 0.0185 | 87.4 | 0.437 | – | –
17 | – | Cc1ccc2c3c(ccc2n1)OCC(CN1CC=C(c2cc4ccccc4s2)CC1)O3 (stereo not shown) [Example 2, 2-(4-Benzo[b]thiophen-2-yl-3,6-dihydro-2H-pyridin-1-ylmethyl)-8-methyl-2,3-dihydro-[1,4]dioxino[2,3-f]quinoline] | – | 0.078 | – | – | 174 to 176 | 0.0216
18 | – | Cc1nc2ccc3c(c2o1)OC(CN1CC=C(c2csc4ccccc24)CC1)CO3 (stereo not shown) (as salt: oxalate) [Example 9, 8-(4-Benzo[b]thiophen-3-yl-3,6-dihydro-2H-pyridin-1-ylmethyl)-2-methyl-7,8-dihydro-[1,4]dioxino[2,3-g][1,3]benzoxazole] | – | – | – | – | 126 to 129 | –
19 | – | C1=C(c2csc3ccccc23)CCN(CC2COc3ccc4ncccc4c3O2)C1 (stereo not shown) [Example 6, 2-(4-Benzo[b]thiophen-3-yl-3,6-dihydro-2H-pyridin-1-ylmethyl)-2,3-dihydro-[1,4]dioxino[2,3-f]quinoline] | 0.0145 | 0.0085 | 100 | 0.145 | – | –

Row | SMILES | Ki (serotonin transporter; [3]) [µM] | Ki (human 5-HT1A receptors) [µM] | Ki (serotonin transporter) [µM] | Emax [1] [%] | IC50 [1] [µM] | melting point [°C] | Ki (human 5-HT1A receptors; [2]) [µM]
20 | Cc1ccc2c3c(ccc2n1)OCC(CN1CC=C(c2cc4ccccc4o2)CC1)O3 (stereo not shown) [Example 11, 2-(4-Benzofuran-2-yl-3,6-dihydro-2H-pyridin-1-ylmethyl)-8-methyl-2,3-dihydro-[1,4]dioxino[2,3-f]quinoline] | 0.213 | 0.0157 | – | 70 | 15.5 | 149 to 150 | –
